Values joined by “and” are separate entries in the source; they are usually repeats but may differ in a detail not shown here. Identical values can stand only once. Toxic doses and inconclusive results are not listed.
Test system: P388 leukemia ip, CD2F1 mice, survival T/C
Test: NCI In Vivo Anticancer Drug Screen. Data for tumor model P388 Leukemia (intraperitoneal) in CD2F1 (CDF1) mice
Details: endpoint: median survival time, higher = longer survival
Outline: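 Mice carrying the transplanted tumor received test compound or vehicle. Survival was recorded in each group, and the value is the treated-group measurement divided by that of the vehicle-treated control group.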

[1] = dose: 6.25 mg/kg/injection, schedule: Q01DX009 (ip), vehicle: saline with Tween-80
[2] = dose: 12.5 mg/kg/injection, schedule: Q01DX009 (ip), vehicle: saline with Tween-80
[3] = dose: 25.0 mg/kg/injection, schedule: Q01DX009 (ip), vehicle: saline with Tween-80
[4] = dose: 50.0 mg/kg/injection, schedule: Q01DX009 (ip), vehicle: saline
[5] = dose: 100.0 mg/kg/injection, schedule: Q01DX009 (ip), vehicle: saline
[6] = dose: 60.0 mg/kg/injection, schedule: Q01DX005 (ip), vehicle: saline with Tween-80
[7] = dose: 120.0 mg/kg/injection, schedule: Q01DX005 (ip), vehicle: saline with Tween-80
[8] = dose: 6.25 mg/kg/injection, schedule: Q01DX009 (ip), vehicle: Klucel (hydroxypropylcellulose) (HPC)
[9] = dose: 12.5 mg/kg/injection, schedule: Q01DX009 (ip), vehicle: Klucel (hydroxypropylcellulose) (HPC)
[10] = dose: 200.0 mg/kg/injection, schedule: Q01DX009 (ip), vehicle: saline
[11] = dose: 50.0 mg/kg/injection, schedule: Q01DX005 (ip), vehicle: saline with Tween-80
[12] = dose: 200.0 mg/kg/injection, schedule: Q01DX005 (ip), vehicle: saline with Tween-80
[13] = dose: 25.0 mg/kg/injection, schedule: Q04DX003 (ip), vehicle: saline with Tween-80
[14] = dose: 60.0 mg/kg/injection, schedule: Q01DX005 (ip), vehicle: Klucel (hydroxypropylcellulose) (HPC)
[15] = dose: 120.0 mg/kg/injection, schedule: Q01DX005 (ip), vehicle: Klucel (hydroxypropylcellulose) (HPC)
[16] = dose: 50.0 mg/kg/injection, schedule: Q01DX009 (ip), vehicle: Klucel (hydroxypropylcellulose) (HPC)

In the case of CC(/C=N\NC(=S)SCc1ccccc1)=N/N=C(N)N, the T/C [1] is reported as 101 % of control, the T/C [2] is reported as 95 % of control and the T/C [3] is reported as 101 % of control. The T/C [4] was 91 % of control and the T/C [5] was 92 % of control.
With CC(=O)Nc1ncnc2c1c(C(N)=O)cn2C1OC(COC(C)=O)C(OC(C)=O)C1OC(C)=O (centres undefined) the T/C (dose: 1.88 mg/kg/injection, schedule: Q01DX005 (ip), vehicle: saline) was 107 % of control and the T/C (dose: 3.75 mg/kg/injection, schedule: Q01DX005 (ip), vehicle: saline) was 117 % of control.
COc1cc(/C=C2\SC(=S)N(CCCN3CCOCC3)C2=O)ccc1O was tested, and the T/C (dose: 50.0 mg/kg/injection, schedule: Q01DX009 (ip), vehicle: saline with Tween-80) was 91 % of control.
With O=C(N/C(=C\c1cccc([N+](=O)[O-])c1)c1nc2ccccc2s1)c1ccccc1 the T/C [6] was 107 % of control, the T/C [7] was 106 % of control and the T/C (dose: 240.0 mg/kg/injection, schedule: Q01DX005 (ip), vehicle: saline with Tween-80) was 110 % of control.
With COc1ccc2c(Cl)cc(NC(=S)Nc3ccccc3)nc2c1 the T/C [8] was 103 % of control, the T/C [9] was 104 % of control and the T/C (dose: 25.0 mg/kg/injection, schedule: Q01DX009 (ip), vehicle: Klucel (hydroxypropylcellulose) (HPC)) was 96 % of control.
With Cc1ccc(NCC2(/N=C/c3ccccc3)OC(CO)C(O)C2O)cc1 (centres undefined) the T/C (dose: 266.0 mg/kg/injection, schedule: Q01DX009 (ip), vehicle: Klucel (hydroxypropylcellulose) (HPC)) was 150 % of control and 157 % of control and the T/C (dose: 400.0 mg/kg/injection, schedule: Q01DX009 (ip), vehicle: Klucel (hydroxypropylcellulose) (HPC)) was 170 % of control and 176 % of control.
CCOC(=O)C(Cc1c[nH]c2ccccc12)NCCNc1ccccc1 (centres undefined) was tested, and the T/C [4] was 91 % of control, the T/C [5] was 91 % of control and the T/C [10] was 99 % of control.
Cn1c(O)c(N=NC(=S)NC(=O)C23CC4CC(CC(C4)C2)C3)c2ccccc21 was tested, and the T/C (dose: 1.56 mg/kg/injection, schedule: Q01DX005 (ip), vehicle: saline with Tween-80) was 96 % of control, the T/C (dose: 3.12 mg/kg/injection, schedule: Q01DX005 (ip), vehicle: saline with Tween-80) was 97 % of control and the T/C (dose: 6.25 mg/kg/injection, schedule: Q01DX005 (ip), vehicle: saline with Tween-80) was 103 % of control. The T/C [11] was 86 % of control and the T/C [12] was 89 % of control.
In the case of COc1cccc2c(NCCCCCCCCNc3c4ccc([N+](=O)[O-])cc4nc4c(OC)cccc34)c3ccc([N+](=O)[O-])cc3nc12, the T/C (dose: 2.5 mg/kg/injection, schedule: Q01DX009 (ip), vehicle: other) is reported as 157 % of control, the T/C (dose: 5.0 mg/kg/injection, schedule: Q01DX009 (ip), vehicle: other) is reported as 152 % of control and the T/C (dose: 10.0 mg/kg/injection, schedule: Q01DX009 (ip), vehicle: other) is reported as 158 % of control and 172 % of control. The T/C (dose: 20.0 mg/kg/injection, schedule: Q01DX009 (ip), vehicle: other) was 170 % of control and the T/C (dose: 40.0 mg/kg/injection, schedule: Q01DX009 (ip), vehicle: other) was 166 % of control.
In the case of CCCNNC(N)=S, the T/C (dose: 12.5 mg/kg/injection, schedule: Q01DX009 (ip), vehicle: other) is reported as 105 % of control and the T/C (dose: 25.0 mg/kg/injection, schedule: Q01DX009 (ip), vehicle: other) is reported as 105 % of control.
In the case of CCCNCCNc1ccc(NCCNCCC)c2c1C(=O)c1ccccc1C2=O, the T/C (dose: 4.0 mg/kg/injection, schedule: Q01DX009 (ip), vehicle: acid diluted with saline) is reported as 104 % of control, the T/C (dose: 8.0 mg/kg/injection, schedule: Q01DX009 (ip), vehicle: acid diluted with saline) is reported as 112 % of control and the T/C (dose: 12.5 mg/kg/injection, schedule: Q01DX009 (ip), vehicle: distilled water + Tween-80) is reported as 120 % of control. For the same compound, the T/C (dose: 16.0 mg/kg/injection, schedule: Q01DX009 (ip), vehicle: acid diluted with saline) was 120 % of control, the T/C (dose: 25.0 mg/kg/injection, schedule: Q01DX009 (ip), vehicle: distilled water + Tween-80) was 118 % of control and the T/C (dose: 32.0 mg/kg/injection, schedule: Q01DX009 (ip), vehicle: acid diluted with saline) was 112 % of control. The T/C (dose: 100.0 mg/kg/injection, schedule: Q01DX009 (ip), vehicle: distilled water + Tween-80) was 124 % of control.
With CN1C(=O)C(=CN(C)c2ccccc2)C(=O)N(C)C1=O the T/C [13] was 111 % of control, the T/C (dose: 50.0 mg/kg/injection, schedule: Q04DX003 (ip), vehicle: saline with Tween-80) was 112 % of control and the T/C (dose: 100.0 mg/kg/injection, schedule: Q04DX003 (ip), vehicle: saline with Tween-80) was 114 % of control and 96 % of control.
Nc1ccc(S(=O)(=O)Nc2nc(-c3ccccc3)cc(-c3ccccc3O)n2)cc1 was tested, and the T/C [6] was 96 % of control and the T/C [7] was 96 % of control.
Nc1nc(N)c(CCCOc2ccc(C(=O)O)cc2)c(N)n1 was tested, and the T/C [14] was 93 % of control and the T/C [15] was 97 % of control.
With CC(=N)c1ccc(C)cc1 the T/C [1] was 90 % of control, the T/C (dose: 6.25 mg/kg/injection, schedule: Q04DX003 (ip), vehicle: saline with Tween-80) was 100 % of control and the T/C [2] was 90 % of control. For the same compound, the T/C (dose: 12.5 mg/kg/injection, schedule: Q04DX003 (ip), vehicle: saline with Tween-80) was 95 % of control, the T/C [3] was 104 % of control and the T/C [13] was 100 % of control.
With O=C(O)CSC(=O)NCCCCCCNC(=O)Nc1ccccc1 the T/C [11] was 104 % of control, the T/C (dose: 100.0 mg/kg/injection, schedule: Q01DX005 (ip), vehicle: saline with Tween-80) was 105 % of control and the T/C [12] was 112 % of control.
CC1(CCc2ccc(N(CCCl)CCCl)cc2)NC(=O)NC1=O (centres undefined) was tested, and the T/C (dose: 3.13 mg/kg/injection, schedule: Q01DX009 (ip), vehicle: Klucel (hydroxypropylcellulose) (HPC)) was 105 % of control, the T/C [8] was 103 % of control and the T/C [9] was 103 % of control. For the same compound, the T/C [16] was 103 % of control.
For Cc1ccc(C)[nH]1, the T/C (dose: 12.5 mg/kg/injection, schedule: Q01DX001 (ip), vehicle: alcohol) was 109 % of control, the T/C (dose: 25.0 mg/kg/injection, schedule: Q01DX001 (ip), vehicle: alcohol) was 111 % of control and the T/C (dose: 50.0 mg/kg/injection, schedule: Q01DX001 (ip), vehicle: alcohol) was 101 % of control and 102 % of control.
In the case of O=CNCC(=O)O, the T/C [4] is reported as 101 % of control, the T/C [5] is reported as 97 % of control and the T/C [10] is reported as 99 % of control.
For C=CCSc1n[nH]c(-c2cccs2)n1, the T/C (dose: 30.0 mg/kg/injection, schedule: Q01DX005 (ip), vehicle: Klucel (hydroxypropylcellulose) (HPC)) was 104 % of control, the T/C [14] was 109 % of control and the T/C [15] was 109 % of control. The T/C (dose: 240.0 mg/kg/injection, schedule: Q01DX005 (ip), vehicle: Klucel (hydroxypropylcellulose) (HPC)) was 109 % of control.
O=C(C=Nc1ccc(Cl)c(Cl)c1)c1ccccc1 was tested, and the T/C [16] was 100 % of control, the T/C (dose: 100.0 mg/kg/injection, schedule: Q01DX009 (ip), vehicle: Klucel (hydroxypropylcellulose) (HPC)) was 100 % of control and the T/C (dose: 200.0 mg/kg/injection, schedule: Q01DX009 (ip), vehicle: Klucel (hydroxypropylcellulose) (HPC)) was 94 % of control.
With O=c1[nH]cc(N(CCCl)CCCl)c(=O)[nH]1 the T/C (dose: 0.05 mg/kg/injection, schedule: Q01DX009 (ip), vehicle: saline with Tween-80) was 109 % of control, the T/C (dose: 0.08 mg/kg/injection, schedule: Q01DX009 (ip), vehicle: saline with Tween-80) was 109 % of control and the T/C (dose: 0.39 mg/kg/injection, schedule: Q01DX009 (ip), vehicle: saline with Tween-80) was 181 % of control. The T/C (dose: 0.65 mg/kg/injection, schedule: Q01DX009 (ip), vehicle: saline with Tween-80) was 181 % of control, the T/C (dose: 1.1 mg/kg/injection, schedule: Q01DX009 (ip), vehicle: saline with Tween-80) was 236 % of control and the T/C (dose: 1.8 mg/kg/injection, schedule: Q01DX009 (ip), vehicle: saline with Tween-80) was 227 % of control. The T/C (dose: 3.0 mg/kg/injection, schedule: Q01DX009 (ip), vehicle: saline with Tween-80) was 118 % of control.
For CN(C(=S=O)c1ccc([N+](=O)[O-])cc1)c1ccccc1, the T/C [4] was 100 % of control, the T/C [5] was 97 % of control and the T/C [10] was 104 % of control.
With O=[N+]([O-])c1ccc(O)c(CNCCCl)c1 the T/C (dose: 25.0 mg/kg/injection, schedule: Q04DX002 (ip), vehicle: DMSO) was 95 % of control, the T/C (dose: 50.0 mg/kg/injection, schedule: Q04DX002 (ip), vehicle: DMSO) was 98 % of control and the T/C (dose: 100.0 mg/kg/injection, schedule: Q04DX002 (ip), vehicle: DMSO) was 89 % of control.

— PubChem BioAssay AID330 (DTP/NCI, 2004)
